Laboratory results from patent publication US20250042911A1, “NOVEL BENZOPYRAN DERIVATIVE AND USE THEREOF” (SPARK BIOPHARMA, INC, priority 2021, published 2025).
pEC50: −log10 of the molar value. Counter-ions that a name gives are not always drawn.

tested on: human M2 macrophages; assay: Inhibition of human M2 macrophage activity, hCCL22 in culture supernatant by ELISA; type: cell-based; settings: Macrophage, hCCL22 inhibitory activity at 10 μM, 72 hours
Procedure: To obtain human M2 macrophages, human monocytes (THP-1 monocyte, CD4 expression) were stabilized in a 96-well plate for 24 hours and then incubated in culture media containing 100 ng/mL phorbal 12-myristate-13-acetate (PMA; Sigma, P8139) for 24 hours to differentiate into M0 macrophages (macrophage-like phenotype). It was confirmed that differentiated M0 macrophages had reduced CD4 expression and expressed CD11b. M0 macrophages in the plate well were washed once with culture media and incubated in culture media containing 25 ng/mL hIL-4 (Peprotech, 200-04-50) and 25 ng/mL hIL-13 (Peprotech, 200-13-50) for 72 hours to differentiate into M2-like macrophages. Test compounds were diluted by concentration in M2 differentiation media and treated simultaneously during a differentiation period of 72 hours. The inhibitory effect of the test compounds on M2 macrophages was determined by measuring hCCL22 in the medium culture supernatant cultured for 72 hours using an ELISA assay (R&D system, DMD00). The results of the activity measurements are represented in Table 3 (EC50), Table 4 ([…] inhibitory activity at 5 μM) and Table 5 (hCCL22 inhibitory activity at 10 μM).

Row | SMILES | inhibition at 10 µM [%]
1 | CNc1ccc2c(c1)OC(C)(C)C1=CCn3c(=O)n(-c4ccc(C(C)=O)cc4)c(=O)n3C12 (stereo not shown) [Example 32, 2-(4-acetylphenyl)-7,7-dimethyl-10-(methylamino)-5,12b-dihydro-1H,7H-chromeno[4,3-c][1,2,4]triazolo[1,2-a]pyridazine-1,3(2H)-dione] | 84.4
2 | CCN(CC)c1ccc2c(c1)OC(C)(C)C1=CCn3c(=O)n(-c4ccc(C(C)=O)cc4)c(=O)n3C12 (stereo not shown) [Example 33, 2-(4-acetylphenyl)-10-(diethylamino)-7,7-dimethyl-5,12b-dihydro-1H,7H-chromeno[4,3-c][1,2,4]triazolo[1,2-a]pyridazine-1,3(2H)-dione] | 96.5
3 | CC(=O)c1ccc(-n2c(=O)n3n(c2=O)C2C(=CC3)C(C)(C)Oc3cc(N4CCCC4)ccc32)cc1 (stereo not shown) [Example 34, 2-(4-acetylphenyl)-7,7-dimethyl-10-(pyrrolidin-1-yl)-5,12b-dihydro-1H,7H-chromeno[4,3-c][1,2,4]triazolo[1,2-a]pyridazine-1,3(2H)-dione] | 73.7
4 | CC1(C)Oc2cc(NC3COC3)ccc2C2C1=CCn1c(=O)n(-c3ccc(F)cc3)c(=O)n12 (stereo not shown) [Example 35, 2-(4-fluorophenyl)-7,7-dimethyl-10-(oxetan-3-ylamino)-5,12b-dihydro-1H,7H-chromeno[4,3-c][1,2,4]triazolo[1,2-a]pyridazine-1,3(2H)-dione] | 96.7

same assay, conditions: hCCL22 secretion, THP-1 derived M2-like macrophages, compound present during 72 hours of differentiation

Row | SMILES | pEC50
5 | CNc1ccc2c(c1)OC(C)(C)C1=CCn3c(=O)n(-c4ccc(C(C)=O)cc4)c(=O)n3C12 (stereo not shown) [Example 32, 2-(4-acetylphenyl)-7,7-dimethyl-10-(methylamino)-5,12b-dihydro-1H,7H-chromeno[4,3-c][1,2,4]triazolo[1,2-a]pyridazine-1,3(2H)-dione] | 5.21
6 | CCN(CC)c1ccc2c(c1)OC(C)(C)C1=CCn3c(=O)n(-c4ccc(C(C)=O)cc4)c(=O)n3C12 (stereo not shown) [Example 33, 2-(4-acetylphenyl)-10-(diethylamino)-7,7-dimethyl-5,12b-dihydro-1H,7H-chromeno[4,3-c][1,2,4]triazolo[1,2-a]pyridazine-1,3(2H)-dione] | 5.24
7 | CC(=O)c1ccc(-n2c(=O)n3n(c2=O)C2C(=CC3)C(C)(C)Oc3cc(N4CCCC4)ccc32)cc1 (stereo not shown) [Example 34, 2-(4-acetylphenyl)-7,7-dimethyl-10-(pyrrolidin-1-yl)-5,12b-dihydro-1H,7H-chromeno[4,3-c][1,2,4]triazolo[1,2-a]pyridazine-1,3(2H)-dione] | 5.11
8 | CC1(C)Oc2cc(NC3COC3)ccc2C2C1=CCn1c(=O)n(-c3ccc(F)cc3)c(=O)n12 (stereo not shown) [Example 35, 2-(4-fluorophenyl)-7,7-dimethyl-10-(oxetan-3-ylamino)-5,12b-dihydro-1H,7H-chromeno[4,3-c][1,2,4]triazolo[1,2-a]pyridazine-1,3(2H)-dione] | 5.32
9 | CNc1c(Cl)cc2c(c1Cl)OC(C)(C)C1=CCn3c(=O)n(-c4ccc(C(C)=O)cc4)c(=O)n3C12 (stereo not shown) [Example 36, 2-(4-acetylphenyl)-9,11-dichloro-7,7-dimethyl-10-(methylamino)-5,12b-dihydro-1H,7H-chromeno[4,3-c][1,2,4]triazolo[1,2-a]pyridazine-1,3(2H)-dione] | 4.97
10 | CC(=O)c1ccc(-n2c(=O)n3n(c2=O)C2C(=CC3)C(C)(C)Oc3c2cc(Cl)c(NC(C)C)c3Cl)cc1 (stereo not shown) [Example 37, 2-(4-acetylphenyl)-9,11-dichloro-10-(isopropylamino)-7,7-dimethyl-5,12b-dihydro-1H,7H-chromeno[4,3-c][1,2,4]triazolo[1,2-a]pyridazine-1,3(2H)-dione] | 4.83
11 | CC(=O)c1ccc(-n2c(=O)n3n(c2=O)C2C(=CC3)C(C)(C)Oc3cc(-c4cc(C)nn4C)ccc32)cc1 (stereo not shown) [Example 38, 2-(4-acetylphenyl)-10-(1,3-dimethyl-1H-pyrazol-5-yl)-7,7-dimethyl-5,12b-dihydro-1H,7H-chromeno[4,3-c][1,2,4]triazolo[1,2-a]pyridazine-1,3(2H)-dione] | 4.50
12 | CC(=O)c1ccc(-n2c(=O)n3n(c2=O)C2C(=CC3)C(C)(C)Oc3cc(-c4nc(C)sc4C)ccc32)cc1 (stereo not shown) [Example 39, 2-(4-acetylphenyl)-10-(2,5-dimethylthiazol-4-yl)-7,7-dimethyl-5,12b-dihydro-1H,7H-chromeno[4,3-c][1,2,4]triazolo[1,2-a]pyridazine-1,3(2H)-dione] | 4.14
13 | CCn1nc(C)c(-c2ccc3c(c2)OC(C)(C)C2=CCn4c(=O)n(-c5ccc(C(C)=O)cc5)c(=O)n4C23)c1C (stereo not shown) [Example 40, 2-(4-acetylphenyl)-10-(1-ethyl-3,5-dimethyl-1H-pyrazol-4-yl)-7,7-dimethyl-5,12b-dihydro-1H,7H-chromeno[4,3-c][1,2,4]triazolo[1,2-a]pyridazine-1,3(2H)-dione] | 4.27
14 | CC(=O)c1ccc(-n2c(=O)n3n(c2=O)C2C(=CC3)C(C)(C)Oc3cc(OC(=O)N4CCNCC4)ccc32)cc1 (stereo not shown) [Example 67, 2-(4-acetylphenyl)-7,7-dimethyl-1,3-dioxo-2,3,5,12b-tetrahydro-1H,7H-chromeno[4,3-c][1,2,4]triazolo[1,2-a]pyridazin-10-yl piperazine-1-carboxylate hydrochloride] | 4.76
15 | CC(=O)c1ccc(-n2c(=O)n3n(c2=O)C2C(=CC3)C(C)(C)Oc3cc(OC(=O)N[C@@H](CCCNC(=N)N)C(=O)O)ccc32)cc1 (stereo partly drawn) [Example 78, (((2-(4-acetylphenyl)-7,7-dimethyl-1,3-dioxo-2,3,5,12b-tetrahydro-1H,7H-chromeno[4,3-c][1,2,4]triazolo[1,2-a]pyridazin-10-yl)oxy)carbonyl)-L-arginine 2,2,2-trifluoroacetic acid] | 5.28
16 | CC(=O)c1ccc(-n2c(=O)n3n(c2=O)C2C(=CC3)C(C)(C)Oc3cc(OC(=O)N4CCN(C(=O)CN(C)C)CC4)ccc32)cc1 (stereo not shown) [Example 99, 2-(4-acetylphenyl)-7,7-dimethyl-1,3-dioxo-2,3,5,12b-tetrahydro-1H,7H-chromeno[4,3-c][1,2,4]triazolo[1,2-a]pyridazin-10-yl 4-(dimethylglycyl)piperazine-1-carboxylate hydrochloride] | 4.49

Results, then the compound that gave them:

Row | pEC50 | SMILES
17 | 4.51 | CC(=O)c1ccc(-n2c(=O)n3n(c2=O)C2C(=CC3)C(C)(C)Oc3cc(-c4cccnc4)ccc32)cc1 (stereo not shown) [Example 42, 2-(4-acetylphenyl)-7,7-dimethyl-10-(pyridin-3-yl)-5,12b-dihydro-1H,7H-chromeno[4,3-c][1,2,4]triazolo[1,2-a]pyridazine-1,3(2H)-dione]
18 | 4.72 | CC(=O)c1ccc(-n2c(=O)n3n(c2=O)C2C(=CC3)C(C)(C)Oc3cc(-c4ccncc4)ccc32)cc1 (stereo not shown) [Example 43, 2-(4-acetylphenyl)-7,7-dimethyl-10-(pyridin-4-yl)-5,12b-dihydro-1H,7H-chromeno[4,3-c][1,2,4]triazolo[1,2-a]pyridazine-1,3(2H)-dione]
19 | 5.04 | CC(=O)c1ccc(-n2c(=O)n3n(c2=O)C2C(=CC3)C(C)(C)Oc3cc(N(C)C(C)C)ccc32)cc1 (stereo not shown) [Example 45, 2-(4-acetylphenyl)-10-(isopropyl(methyl)amino)-7,7-dimethyl-5,12b-dihydro-1H,7H-chromeno[4,3-c][1,2,4]triazolo[1,2-a]pyridazine-1,3(2H)-dione]
20 | 5.09 | CC(=O)c1ccc(-n2c(=O)n3n(c2=O)C2C(=CC3)C(C)(C)Oc3cc(N(C(C)C)C(C)C)ccc32)cc1 (stereo not shown) [Example 47, 2-(4-acetylphenyl)-10-(diisopropylamino)-7,7-dimethyl-5,12b-dihydro-1H,7H-chromeno[4,3-c][1,2,4]triazolo[1,2-a]pyridazine-1,3(2H)-dione]
21 | 5.01 | CN1CCN(c2ccc3c(c2)OC(C)(C)C2=CCn4c(=O)n(-c5ccc(C(C)(C)C)cc5)c(=O)n4C23)CC1 (stereo not shown) [Example 48, 2-(4-(tert-butyl)phenyl)-7,7-dimethyl-10-(4-methylpiperazin-1-yl)-5,12b-dihydro-1H,7H-chromeno[4,3-c][1,2,4]triazolo[1,2-a]pyridazine-1,3(2H)-dione]
22 | 4.92 | CN1CCN(c2ccc3c(c2)OC(C)(C)C2=CCn4c(=O)n(-c5ccc(C(F)(F)F)cc5)c(=O)n4C23)CC1 (stereo not shown) [Example 49, 7,7-dimethyl-10-(4-methylpyrerazin-1-yl)-2-(4-(trifluoromethyl)phenyl)-5,12b-dihydro-1H,7H-chromeno[4,3-c][1,2,4]triazolo[1,2-a]pyridazine-1,3(2H)-dione]
23 | 4.59 | CN1CCN(c2ccc3c(c2)OC(C)(C)C2=CCn4c(=O)n(-c5ccc(F)cc5)c(=O)n4C23)CC1 (stereo not shown) [Example 50, 2-(4-fluorophenyl)-7,7-dimethyl-10-(4-methylpiperazin-1-yl)-5,12b-dihydro-1H,7H-chromeno[4,3-c][1,2,4]triazolo[1,2-a]pyridazine-1,3(2H)-dione]
24 | 4.47 | CC(=O)c1ccc(-n2c(=O)n3n(c2=O)C2C(=CC3)C(C)(C)Oc3cc(N4CCN(C)CC4)ccc32)cc1 (stereo not shown) [Example 51, 2-(4-acetylphenyl)-7,7-dimethyl-10-(4-methylpiperazin-1-yl)-5,12b-dihydro-1H,7H-chromeno[4,3-c][1,2,4]triazolo[1,2-a]pyridazine-1,3(2H)-dione]
25 | 4.58 | CC(=O)c1ccc(-n2c(=O)n3n(c2=O)C2C(=CC3)C(C)(C)Oc3cc(N4CCN(S(C)(=O)=O)CC4)ccc32)cc1 (stereo not shown) [Example 52, 2-(4-acetylphenyl)-7,7-dimethyl-10-(4-(methylsulfonyl)piperazin-1-yl)-5,12b-dihydro-1H,7H-chromeno[4,3-c][1,2,4]triazolo[1,2-a]pyridazine-1,3(2H)-dione]
26 | 5.35 | CC1(C)Oc2cc(O)ccc2C2C1=CCn1c(=O)n(-c3ccc(C(=O)N4CCOCC4)cc3)c(=O)n12 (stereo not shown) [Example 53, 10-hydroxy-7,7-dimethyl-2-(4-(morpholine-4-carbonyl)phenyl)-5,12b-dihydro-1H,7H-chromeno[4,3-c][1,2,4]triazolo[1,2-a]pyridazine-1,3(2H)-dione]
27 | 5.82 | CC(C)(C)OC(=O)N1CCN(C(=O)c2ccc(-n3c(=O)n4n(c3=O)C3C(=CC4)C(C)(C)Oc4cc(O)ccc43)cc2)CC1 (stereo not shown) [Example 54, tert-butyl 4-(4-(10-hydroxy-7,7-dimethyl-1,3-dioxo-5,12b-dihydro-1H,7H-chromeno[4,3-c][1,2,4]triazolo[1,2-a]pyridazin-2(3H)-yl)benzoyl)piperazine-1-carboxylate]
28 | 4.23 | CC(=O)c1ccc(-n2c(=O)n3n(c2=O)C2C(=CC3)C(C)(C)Oc3cc(OC(=O)C(C)(C)C)ccc32)cc1 (stereo not shown) [Example 58, 2-(4-acetylphenyl)-7,7-dimethyl-1,3-dioxo-2,3,5,12b-tetrahydro-1H,7H-chromeno[4,3-c][1,2,4]triazolo[1,2-a]pyridazin-10-yl pivalate]
